Data as given in patent US20260364088A1, “TASL MIMICKING MOLECULES AND APPLICATIONS THEREOF” (CEMM - FORSCHUNGSZENTRUM FÜR MOLEKULARE MEDIZIN GMBH, priority 2022, published 2026).
Where two headings read alike, the source gives them in different places.

Target: T1, THP1 dual cell (Homo sapiens, UniProt Q8N697)
T1 construct: R848 (TLR7/8)-stimulated ISRE reporter
Assay: THP1 DUAL/ISRE cell reporter assay (R848 stimulated)
Assay type: cell-based
Method: CAL-1, THP1 or human primary cells were incubated with dTASL1 and other identified compounds (or the corresponding volume of DMSO vehicle) for 24 h or 48 h at the indicated concentration and subsequently stimulated with R848 (5 μg/ml) for the indicated time. Supernatant or cells were recovered for ELISA, SDS-PAGE or microscopy-based analysis.
THP1 DUAL cells (1×10^5 cells per 96 well) were incubated with compounds for 24 h or 48 h, and subsequently stimulated for 20 h as indicated. Cell culture supernatant were collected, cleared of residual cells by centrifugation and analyzed for NF-κB and ISRE reporter activity according to the manufacturer's instructions. For experiments in 384-well format, compounds were pre-plated at defined concentrations and THP1 dual cells were added at 800 k/well concentration in […]. After incubation for 24 h or 48 h cells were stimulated with […] of a 25 μg/ml stock of R848 or 0.5 μg/ml Pam3CKS4 5× stocks as indicated for 20 h and detected by directly adding Quanti-Luc Plus (Invivogen) solution to the plates, according to the manufacturer's instructions and without adding stabilizer solution. Quanti-Blue detection was carried out according to the manifacturers instructions, with QB reagent and buffer (Invivogen) dissolved in 30 ml water, instead of the 100 ml used for standard detection.
Based on potency and kinetics, the compound C5 was selected for further characterization (FIG. 2E). C5 is an elongated molecule comprised of an aromatic 2-(4-ethoxyphenyl)-quinoline moiety followed by an amide bond and an aliphatic 2-methyl-1-propylpiperidine (FIG. 2F). To validate the scaffold and explore the chemical space at the aliphatic end of the compound, five analogues and an independently synthesized batch of C5 were obtained. […] Therefore the C5 compound was selected, which was named dTASL1 as its activity leads to TASL degradation, to assess effects on TLR7/8-induced signaling and responses.
The following compounds were assayed for their activity in the degradation assay (THP1 DUAL/ISRE cell reporter assay), as described herein: […]

[1] = 24 h treatment before R848 stimulation, read-out: IC50 24 h
[2] = 48 h treatment before R848 stimulation, read-out: IC50 48 h

T1 sequence (Q8N697 whole entry): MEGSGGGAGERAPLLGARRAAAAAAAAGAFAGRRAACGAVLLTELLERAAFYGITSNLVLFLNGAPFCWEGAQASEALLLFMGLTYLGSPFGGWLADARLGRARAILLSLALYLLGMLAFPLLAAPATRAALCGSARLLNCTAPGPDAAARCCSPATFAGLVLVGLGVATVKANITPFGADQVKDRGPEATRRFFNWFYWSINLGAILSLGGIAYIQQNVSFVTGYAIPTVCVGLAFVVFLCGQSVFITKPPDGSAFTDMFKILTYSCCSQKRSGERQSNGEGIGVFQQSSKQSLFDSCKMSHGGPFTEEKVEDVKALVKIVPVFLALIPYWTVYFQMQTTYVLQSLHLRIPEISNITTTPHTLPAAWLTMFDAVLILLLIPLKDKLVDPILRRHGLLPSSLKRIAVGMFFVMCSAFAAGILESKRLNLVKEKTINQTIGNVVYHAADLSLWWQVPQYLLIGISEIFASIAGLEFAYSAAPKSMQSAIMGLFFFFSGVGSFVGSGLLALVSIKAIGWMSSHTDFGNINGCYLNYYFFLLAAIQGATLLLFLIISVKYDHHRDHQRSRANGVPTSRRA

IC50 [1] [µM] | IC50 [2] [µM] | Structure (SMILES)
3.49 | 2.96 | CCOc1ccc(-c2cc(C(=O)NCCCN3CCCCCC3)c3ccccc3n2)cc1 [dTASL1-a2]
4.16 | 2.39 | CCOc1ccc(-c2cc(C(=O)NCCCN3CCCCC3)c3ccccc3n2)cc1 [dTASL1-a4]
